# Assay results: ChEMBL document CHEMBL3232814, “Synthesis and anticancer structure activity relationship investigation of cationic anthraquinone analogs” (2014)
# Columns and labels:
# Format in all cases: functional
# HCT-116 = test: Growth inhibition of human HCT116 cells; details: for CC50: read-out: LC50 (the source's name)
# [1] = Growth inhibition of human HCT15 cells; details: for GI50: HCT-15
# [2] = Growth inhibition of human HCC2998 cells; details: for GI50: HCC 2998; for CC50: HCC 2998, read-out: LC50 (the source's name)
# [3] = Growth inhibition of human SF295 cells; details: SF-295
# MDA-MB-435 = test: Growth inhibition of human MDA-MB-435 cells; details: for CC50: read-out: LC50 (the source's name)
# [4] = Growth inhibition of human LOXIMVI cells; details: LOX IMVI; for CC50: read-out: LC50 (the source's name)
# [5] = Growth inhibition of human UACC257 cells; details: for GI50: UACC-257; for CC50: UACC-257, read-out: LC50 (the source's name)
# NCI-H226 = test: Growth inhibition of human NCI-H226 cells; details: for CC50: read-out: LC50 (the source's name)
# [6] = Growth inhibition of human UACC62 cells; details: for GI50: UACC-62; for CC50: UACC-62, read-out: LC50 (the source's name)
# NCI-H522 = test: Growth inhibition of human NCI-H522 cells; details: for CC50: read-out: LC50 (the source's name)
# Staphylococcus aureus = test: Antimicrobial activity against Staphylococcus aureus ATCC 25923 after 12 to 18 hrs by 2-fold serial dilution method
# U-251 = test: Growth inhibition of human U251 cells
# HT-29 = test: Growth inhibition of human HT-29 cells
# [7] = Growth inhibition of human SF539 cells; details: for GI50: SF-539; for CC50: SF-539, read-out: LC50 (the source's name)
# SK-MEL-2 = test: Growth inhibition of human SK-MEL-2 cells; details: for CC50: read-out: LC50 (the source's name)
# Malme-3M = test: Growth inhibition of human MALME-3M cells; details: for CC50: read-out: LC50 (the source's name)
# NCI-H23 = test: Growth inhibition of human NCI-H23 cells; details: for CC50: read-out: LC50 (the source's name)
# M14 = test: Growth inhibition of human M14 cells; details: for CC50: read-out: LC50 (the source's name)
# A549 = test: Growth inhibition of human A549 cells; details: for CC50: read-out: LC50 (the source's name)
# [8] = Growth inhibition of human NCI60 cells assessed as cell growth; parameters: concentration or dose not given beside the values
# HOP-62 = test: Growth inhibition of human HOP62 cells; details: for CC50: read-out: LC50 (the source's name)
# SK-MEL-5 = test: Growth inhibition of human SK-MEL-5 cells
# KM12 = test: Growth inhibition of human KM12 cells; details: for CC50: read-out: LC50 (the source's name)
# COLO 205 = test: Growth inhibition of human COLO205 cells; details: for CC50: read-out: LC50 (the source's name)
# NCI-H322M = test: Growth inhibition of human NCI-H322M cells; details: for CC50: read-out: LC50 (the source's name)
# SNB-75 = test: Growth inhibition of human SNB75 cells; details: for CC50: read-out: LC50 (the source's name)
# [9] = Growth inhibition of human HOP92 cells; details: for GI50: HOP-92; for CC50: HOP-92, read-out: LC50 (the source's name)
# SF-268 = test: Growth inhibition of human SF268 cells; details: for CC50: read-out: LC50 (the source's name)
# NCI-H460 = test: Growth inhibition of human NCI-H460 cells; details: for CC50: read-out: LC50 (the source's name)
# SK-MEL-28 = test: Growth inhibition of human SK-MEL-28 cells; details: for CC50: read-out: LC50 (the source's name)
# SW-620 = test: Growth inhibition of human SW620 cells; details: for CC50: read-out: LC50 (the source's name)
# SNB-19 = test: Growth inhibition of human SNB19 cells
smiles,measurement,setting,value
COc1cc(OC)cc(-n2n[n+](C)c3c2C(=O)c2ccccc2C3=O)c1.O=S(=O)([O-])C(F)(F)F,GI50,HCT-116,2660 nM
same,CC50,HCT-116,48.6 µM
same,GI50,[1],1610 nM
same,GI50,[2],1500 nM
same,CC50,[2],8.99 µM
same,GI50,[3],180 nM
same,LC50 (concentration killing 50% of cells),[3],610 nM
same,GI50,MDA-MB-435,310 nM
same,GI50,[4],1710 nM
same,CC50,[4],7.09 µM
same,GI50,[5],1200 nM
same,CC50,[5],5.3 µM
same,GI50,NCI-H226,1740 nM
same,CC50,NCI-H226,7.76 µM
same,GI50,[6],1410 nM
same,CC50,[6],5.89 µM
same,GI50,NCI-H522,2540 nM
same,CC50,NCI-H522,29.2 µM
same,MIC,Staphylococcus aureus,16 µg/mL
same,GI50,U-251,1530 nM
same,LC50,U-251,5.54 µM
same,GI50,HT-29,1100 nM
same,LC50,HT-29,> 100 µM
same,GI50,[7],1640 nM
same,CC50,[7],5.6 µM
same,GI50,SK-MEL-2,2080 nM
same,CC50,SK-MEL-2,12.4 µM
same,GI50,Malme-3M,410 nM
same,CC50,Malme-3M,3.72 µM
same,GI50,NCI-H23,1260 nM
same,CC50,NCI-H23,> 100 µM
same,GI50,M14,500 nM
same,CC50,M14,4.37 µM
same,GI50,A549,780 nM
same,CC50,A549,8.81 µM
same,Activity,[8],23.23%
same,GI50,HOP-62,1510 nM
same,CC50,HOP-62,6.08 µM
same,GI50,SK-MEL-5,180 nM
same,LC50 (lethal concentration 50),SK-MEL-5,660 nM
same,GI50,KM12,3110 nM
same,CC50,KM12,42.9 µM
same,GI50,COLO 205,400 nM
same,CC50,COLO 205,5.35 µM
same,GI50,NCI-H322M,360 nM
same,CC50,NCI-H322M,3.68 µM
same,GI50,SNB-75,1630 nM
same,CC50,SNB-75,5.47 µM
same,GI50,[9],7070 nM
same,CC50,[9],> 100 µM
same,GI50,SF-268,3680 nM
same,CC50,SF-268,> 100 µM
same,GI50,NCI-H460,560 nM
same,CC50,NCI-H460,8.01 µM
same,GI50,SK-MEL-28,3200 nM
same,CC50,SK-MEL-28,43.3 µM
same,GI50,SW-620,3000 nM
same,CC50,SW-620,> 100 µM
same,GI50,SNB-19,1250 nM
same,LC50,SNB-19,5.1 µM
COc1cc(-n2n[n+](C)c3c2C(=O)c2ccccc2C3=O)cc(OC)c1OC.O=S(=O)([O-])C(F)(F)F,GI50,HCT-116,460 nM
same,CC50,HCT-116,18 µM
same,GI50,[1],1350 nM
same,GI50,[2],1630 nM
same,CC50,[2],8.22 µM
same,GI50,[3],540 nM
same,LC50 (concentration killing 50% of cells),[3],4670 nM
same,GI50,MDA-MB-435,190 nM
same,CC50,MDA-MB-435,670 nM
same,GI50,[4],1190 nM
same,CC50,[4],> 100 µM
same,GI50,[5],1370 nM
same,CC50,[5],5.81 µM
same,GI50,NCI-H226,1800 nM
same,CC50,NCI-H226,18 µM
same,GI50,[6],1230 nM
same,CC50,[6],6.12 µM
same,GI50,NCI-H522,1710 nM
same,CC50,NCI-H522,8.38 µM
same,MIC,Staphylococcus aureus,32 µg/mL
same,GI50,U-251,1540 nM
same,LC50,U-251,5.52 µM
same,GI50,HT-29,340 nM
same,LC50,HT-29,> 100 µM
same,GI50,[7],400 nM
same,CC50,[7],3.8 µM
same,GI50,SK-MEL-2,1750 nM
same,CC50,SK-MEL-2,8.09 µM
same,GI50,Malme-3M,300 nM
same,CC50,Malme-3M,3.26 µM
same,GI50,NCI-H23,1940 nM
same,GI50,M14,480 nM
same,CC50,M14,4.51 µM
same,GI50,A549,1680 nM
same,CC50,A549,> 100 µM
same,Activity,[8],-27.06%
same,GI50,HOP-62,1310 nM
same,CC50,HOP-62,7.22 µM
same,GI50,SK-MEL-5,240 nM
same,LC50 (lethal concentration 50),SK-MEL-5,2320 nM
same,GI50,KM12,2110 nM
same,CC50,KM12,> 100 µM
same,GI50,COLO 205,390 nM
same,CC50,COLO 205,5.05 µM
same,GI50,NCI-H322M,400 nM
same,CC50,NCI-H322M,5.27 µM
same,GI50,SNB-75,1430 nM
same,CC50,SNB-75,5.34 µM
same,GI50,[9],1920 nM
same,CC50,[9],> 100 µM
same,GI50,SF-268,870 nM
same,CC50,SF-268,> 100 µM
same,GI50,NCI-H460,790 nM
same,CC50,NCI-H460,> 100 µM
same,GI50,SK-MEL-28,1370 nM
same,CC50,SK-MEL-28,7.11 µM
same,GI50,SW-620,1990 nM
same,CC50,SW-620,> 100 µM
same,GI50,SNB-19,1400 nM
same,LC50,SNB-19,6.99 µM
COc1ccc(-n2n[n+](C)c3c2C(=O)c2ccccc2C3=O)cc1OC.O=S(=O)([O-])C(F)(F)F,GI50,HCT-116,1160 nM
same,CC50,HCT-116,9.53 µM
same,GI50,[1],1110 nM
same,CC50,"[1]; HCT-15, read-out: LC50 (the source's name)",6.06 µM
same,GI50,[2],1650 nM
same,CC50,[2],5.79 µM
same,GI50,[3],200 nM
same,LC50 (concentration killing 50% of cells),[3],950 nM
same,GI50,MDA-MB-435,190 nM
same,CC50,MDA-MB-435,640 nM
same,GI50,[4],1140 nM
same,GI50,[5],1490 nM
same,CC50,[5],5.34 µM
same,GI50,NCI-H226,1300 nM
same,CC50,NCI-H226,6.85 µM
same,GI50,[6],1220 nM
same,CC50,[6],5.09 µM
same,GI50,NCI-H522,2000 nM
same,CC50,NCI-H522,6.86 µM
same,MIC,Staphylococcus aureus,4 µg/mL
same,GI50,U-251,1340 nM
same,LC50,U-251,5.11 µM
same,GI50,HT-29,550 nM
same,LC50,HT-29,22.2 µM
same,GI50,[7],500 nM
same,CC50,[7],4.08 µM
same,GI50,SK-MEL-2,1400 nM
same,CC50,SK-MEL-2,7.37 µM
same,GI50,Malme-3M,210 nM
same,CC50,Malme-3M,1.88 µM
same,GI50,NCI-H23,1060 nM
same,CC50,NCI-H23,> 100 µM
same,GI50,M14,330 nM
same,CC50,M14,3.47 µM
same,GI50,A549,400 nM
same,CC50,A549,8.97 µM
same,Activity,[8],-31.51%
same,GI50,HOP-62,1230 nM
same,CC50,HOP-62,5.64 µM
same,GI50,SK-MEL-5,160 nM
same,LC50 (lethal concentration 50),SK-MEL-5,570 nM
same,GI50,KM12,1380 nM
same,CC50,KM12,7.23 µM
same,GI50,COLO 205,310 nM
same,CC50,COLO 205,5.71 µM
same,GI50,NCI-H322M,300 nM
same,CC50,NCI-H322M,3.34 µM
same,GI50,SNB-75,820 nM
same,CC50,SNB-75,4.56 µM
same,GI50,[9],2270 nM
same,CC50,[9],58.8 µM
same,GI50,SF-268,1230 nM
same,CC50,SF-268,> 100 µM
same,GI50,NCI-H460,360 nM
same,CC50,NCI-H460,8.21 µM
same,GI50,SK-MEL-28,1340 nM
same,CC50,SK-MEL-28,6.47 µM
same,GI50,SW-620,1660 nM
same,CC50,SW-620,8.87 µM
same,GI50,SNB-19,1140 nM
same,LC50,SNB-19,4.87 µM
